Among the data in patent US10604514B2, “6-(5-membered heteroaryl)isoquinolin-3-yl carboxamides and preparation and use thereof” (Samumed, LLC, priority 2017, dated 2020) are EC50 and inhibition values, retold here.

Where two headings read alike, the source gives them in different places.

For assay [1], the system named is Tau phosphorylation at Ser396 (pSer396), SH-SY5Y cells. Briefly: Tau phosphorylation at Ser396 (pSer396) in SH-SY5Y cells, ELISA/western blot.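 Further: cell lysates probed for reduced Tau pSer396 via ELISA (colorimetric) or western blot (chemiluminescence), both with one shared pSer396 antibody, EC50 for lowering phosphorylation.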 In kind it is cell-based, human. Particulars: Homo sapiens. For orientation: In an ELISA, binding on a coated surface is turned into a signal by an enzyme label.
The next assay concerns the target DYRK1A kinase (Homo sapiens (Human), UniProt Q13627). Briefly: DYRK1A kinase assay (Ser/Thr 18 peptide Z-lyte, FRET).
Another assay deals with IL-6. In words: IL-6 inhibition in LPS-stimulated human peripheral blood mononuclear cells (HTRF). In kind it is cell-based. The conditions noted are these: Homo sapiens, PBMC; for inhibition at 10 µM: read-out: percent value in parentheses below EC50 >10; for EC50: IL-6, LPS-stimulated huPBMCs, HTRF. An outline of the steps:
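EC50 from a 4-parameter fit of DMSO-normalized HTRF (665/620 nm) IL-6 signal, duplicates. Compound was added to fresh human PBMCs in 1% FBS RPMI for 2 h (top 10 μM, 3-fold, 0.25% DMSO) before 22 h stimulation with LPS at 50 ng/mL, 37 °C.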

Assay [2] relates to SW480 colon carcinoma cells. In words: Cell viability assay (CellTiter-Glo) in SW480 cells.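 Further: SW480 cells stably carrying an Sp5-luciferase TCF/LEF reporter, luminescent ATP signal as viability measure, DMSO-treated cells as control.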 The format is cell-based, human. A general note: ATP-based viability assays read luminescence as a measure of living cells.
Method: Representative compounds were screened using the assay procedure to assess the effect on cell viability as described below.
SW480 colon carcinoma cells were transduced with a lentiviral vector expressing luciferase with a human Sp5 promoter consisting of a sequence of eight TCF/LEF binding sites. SW480 cells stably expressing the Sp5-Luc reporter gene and a hygromycin resistance gene were selected by treatment with 150 μg/mL of hygromycin for 7 days. These stably transduced SW480 cells were expanded in cell culture and used for all further screening activities. Each compound was dissolved in DMSO as a 10 mM stock and used to prepare compound source plates.
For the Cell Viability Assays, the cells were plated at 2,000 cells/well in 384-well plates with a DMEM medium containing 1% fetal bovine serum, and 1% Penicillin-Streptomycin and incubated for four days hours at 37° C. and 5% CO2. Eight replicates of DMSO-treated cells served as controls and cells treated with compound were performed in duplicate.
After incubation, 10 μL of CellTiter-Glo (Promega) was added to each well allowed to incubate for approximately 12 minutes.
Dose-response curves were generated and EC50 concentration values were calculated using non-linear regression curve fit in the GraphPad Prism (San Diego, Calif.) or Dotmatics' Studies Software (Bishops Stortford, UK).
In assay [3] the test system is LL29 cells (primary human fibroblasts derived from IPF patients), α-smooth muscle actin. In words: Inhibition of fibrotic process: αSMA in TGF-β1-treated primary human fibroblasts from IPF patients (LL29 cells). In kind it is cell-based. The conditions noted are these: Homo sapiens, Fibroblast; for EC50: 96 h, % αSMA-positive LL29 cells, TGF-β1 20 ng/mL, 4 days. In a few lines: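 Read-out is the percentage of αSMA-positive cells by high-content imaging, excluding SYTOX green-positive dead/apoptotic cells, normalized to TGF-β1-only wells on the same plate. LL29 cells were exposed for 4 days at 37 °C to 20 ng/mL TGF-β1 plus 11-point, 2-fold compound dilutions in 0.1% DMSO.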

For assay [4], the system named is Wnt activity (Sp5-Luc reporter in SW480 colon carcinoma cells). In words: Wnt activity screening assay (Sp5-Luc reporter gene assay). The format is cell-based, human. In a few lines: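 Compounds at 10 points (1:3 steps, top 10 μM, 0.1% DMSO final) were incubated 36 to 48 h at 37° C with stable Sp5-Luc SW480 reporter cells in 1% FBS medium. Luciferase luminescence was then read and expressed relative to DMSO-only cells. Four-parameter variable-slope fitting yielded EC50 values.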
(In a reporter assay the amount or activity of a reporter protein is the signal.)

A further assay has as its target GSK3β kinase (Homo sapiens (Human), UniProt P49841). In words: GSK3β kinase assay (Ser/Thr 09 peptide Z-lyte, FRET).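 Further: Coumarin/fluorescein emission ratio converted to percent phosphorylation against unphosphorylated (0%) and phosphorylated (100%) controls, 1 h compound incubation at room temperature, 11-point threefold dilutions from 10 µM, run in duplicate.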 In kind it is biochemical. The conditions noted are these: method text calls the value IC50.
Where [5] appears, read: DYRK1A kinase, method text calls the value IC50.
[6] abbreviates: Homo sapiens, 96 h; cell viability, SW480 cells, four days, CellTiter-Glo.
The mark [7] stands for this setting: Homo sapiens, SW480, read-out: percent inhibition at 10 μM.
Setting [8] is: Homo sapiens; Sp5-Luc reporter, SW480 cells, 36 to 48 hours.
[9] abbreviates: SH-SY5Y cells, overnight (16-18 h), read-out: pSer396 Tau EC50.
[10] abbreviates: Homo sapiens, SW480; read-out: percent inhibition at 10 μM.

The term EC50 denotes the concentration that produces a half-maximal response.

Sequence of GSK3β kinase (P49841 whole entry): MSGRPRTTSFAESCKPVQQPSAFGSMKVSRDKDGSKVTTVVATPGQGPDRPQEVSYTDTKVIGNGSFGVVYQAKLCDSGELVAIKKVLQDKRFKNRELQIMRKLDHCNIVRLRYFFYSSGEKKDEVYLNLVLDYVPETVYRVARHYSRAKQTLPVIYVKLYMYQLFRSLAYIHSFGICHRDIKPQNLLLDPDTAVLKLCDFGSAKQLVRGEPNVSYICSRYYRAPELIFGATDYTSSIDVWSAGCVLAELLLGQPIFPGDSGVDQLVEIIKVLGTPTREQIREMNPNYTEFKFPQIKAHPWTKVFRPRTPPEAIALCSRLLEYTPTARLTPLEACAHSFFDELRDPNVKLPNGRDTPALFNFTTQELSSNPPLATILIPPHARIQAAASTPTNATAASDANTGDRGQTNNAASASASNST

As to `Cc1nnc(-c2ccc3cnc(NC(=O)N4[C@@H]5CC[C@H]4C[C@@H](N)C5)cc3c2)s1` [Compound 193, (1R,5S)-3-endo-Amino-N-(6-(5-methyl-1,3,4-thiadiazol-2-yl)isoquinolin-3-yl)-8-azabicyclo[3.2.1]octane-8-carboxamide], the half-maximal effective concentration (EC50) in assay [1] (SH-SY5Y, read-out: pSer396 Tau EC50 (μM)) was more than 10 µM; at DYRK1A kinase (setting [5]) it was 33 nM; with IL-6, more than 10000 nM; in assay [2] (setting [6]), more than 10000 nM; in assay [3], more than 10000 nM; in assay [4] (setting [8]), more than 10000 nM. Moreover, on GSK3β kinase, the EC50 is 330 nM. The inhibition at 10 µM came to 6.5% in the assay with IL-6, 12.8% in assay [2] (setting [7]), 6.5% in assay [3] (read-out: percent inhibition at 10 μM) and 8.4% in assay [4] (setting [7]).
Turning to `Cn1cc(-c2cc(F)c3cnc(NC(=O)[C@H]4CC[C@H](N(C)C)CC4)cc3c2)cn1` [Compound 1, trans-4-(Dimethylamino)-N-(8-fluoro-6-(1-methyl-1H-pyrazol-4-yl)isoquinolin-3-yl)cyclohexane-1-carboxamide], the half-maximal effective concentration (EC50) in assay [1] (setting [9]) turned out to be 0.368 µM; on DYRK1A kinase (setting [5]) it was 4 nM; with IL-6, 3040 nM; in assay [2] (setting [6]), 839 nM; in assay [3], 445 nM; in assay [4] (setting [8]), 239 nM. This compound displayed a concentration for a half-maximal effect (EC50) on GSK3β kinase of 107 nM.
Turning to `Cc1nnc(-c2ccc3cnc(NC(=O)N4CCC(N(C)CC(F)F)CC4)cc3c2)s1` [Compound 32, 4-((2,2-Difluoroethyl)(methyl)amino)-N-(6-(5-methyl-1,3,4-thiadiazol-2-yl)isoquinolin-3-yl)piperidine-1-carboxamide], the half-maximal effective concentration (EC50) was 0.891 µM in assay [1] (setting [9]); 17 nM at DYRK1A kinase (setting [5]); more than 10000 nM in the assay with IL-6; more than 10000 nM in assay [2] (setting [6]); 771 nM in assay [3]; more than 10000 nM in assay [4] (setting [8]). At GSK3β kinase, this compound returned an EC50 of 210 nM. For the same compound, the values for the inhibition at 10 µM (in the assay with IL-6; in assay [2] (setting [10]); in assay [4] (setting [10])) were 10.1%, 8.3% and 30.5%, respectively.
On to `[2H]c1c([2H])c(C(=O)Nc2cc3cc(-c4cnc(C)n4C)ccc3cn2)c([2H])c([2H])c1C` [Compound 162, N-(6-(1,2-Dimethyl-1H-imidazol-5-yl)isoquinolin-3-yl)-4-methylbenzamide-2,3,5,6-d4], for which the 50% effective concentration (EC50) in assay [1] (setting [9]) is more than 10 µM; on DYRK1A kinase, 11 nM; in the assay with IL-6 it was more than 10000 nM; in assay [2] (setting [6]), 653 nM; in assay [3], 2000 nM; in assay [4] (setting [8]), 588 nM. Also, it took 5060 nM to reach a half-maximal effect at GSK3β kinase (EC50). Also, the inhibition at 10 µM in the assay with IL-6 worked out at 44.7%.
As to `[2H]c1c([2H])c([2H])c(C(=O)Nc2cc3cc(-c4cnc(C)n4C)ccc3cn2)c(F)c1[2H]` [Compound 157, N-(6-(1,2-Dimethyl-1H-imidazol-5-yl)isoquinolin-3-yl)-2-fluorobenzamide-3,4,5,6-d4], the 50% effective concentration (EC50) in assay [1] (setting [9]) was 0.72 µM; on DYRK1A kinase, 19 nM; with IL-6, more than 10000 nM; in assay [2] (setting [6]) it was 2380 nM; in assay [3] it was 5790 nM; in assay [4] (setting [8]) it was 1730 nM. In addition, the EC50 at GSK3β kinase is more than 10000 nM. In addition, the inhibition at 10 µM in the assay with IL-6 amounted to 0%.
Turning to `Cc1ncc(-c2cc(F)c3cnc(NC(=O)[C@H]4CC[C@H](N(C)C)CC4)cc3c2)o1` [Compound 17, trans-4-(Dimethylamino)-N-(8-fluoro-6-(2-methyloxazol-5-yl)isoquinolin-3-yl)cyclohexane-1-carboxamide], the 50% effective concentration (EC50) in assay [1] (setting [9]) was found to be 0.743 µM; at DYRK1A kinase (setting [5]), 18 nM; in the assay with IL-6 it was 3440 nM; in assay [2] (setting [6]), 6910 nM; in assay [3], 1430 nM; in assay [4] (setting [8]), 4100 nM. The same compound had an EC50 at GSK3β kinase of 188 nM.
